How the values were obtained:
[1] = Critical aggregation concentration (CAC) by dynamic light scattering in pH-adjusted PBS; format: physicochemical; conditions: for critical aggregation concentration (CAC) as a function of pH: pH 7.4 vs 5.5, DLS; for CAC over a range of pH values: DLS
Experimental: CAC values are calculated by preparing colloidal formulations with different concentrations and measuring the scattering intensity (or fluorescence intensity when appropriate). The data is then fit to Equation S4, which was derived from first principles (Equations S1-S3), using the MATLAB curve fitting toolbox to obtain the critical aggregation concentration (CAC) under the conditions used.
Colloids were formulated as described in Example 1. […] 100 μL of each sample was analyzed by DLS and the CAC's calculated as described in Example 1.
Colloids were formulated as described in Example 1. Briefly, solutions of fulvestrant analogue in DMSO were prepared at various concentrations and then diluted 100-fold with PBS at different […]. 100 μL of each sample was analyzed by DLS and the CAC's calculated as described in Example 1.
Colloids were formulated as described in Example 1. Briefly, solutions of siramesine in DMSO were prepared at various concentrations and then diluted 100-fold with pH-adjusted PBS containing stabilizer (where applicable). 100 μL of each sample was analyzed by DLS and the CACs calculated as described in Example 1.

[2] = Drug release from colloids (centrifugation, drug in supernatant by HPLC-MS-MS); format: physicochemical; conditions: for amount of drug released from co-colloids as a function of pH / drug release over time after acidification to pH 5.5: 12.5 μM lapatinib, 37.5 μM fulvestrant, 0.01 mg/mL PLAC-PEG in PBS
Experimental: Drug release was measured by centrifuging to pellet the colloids, and then by quantifying the drug in the supernatant. Colloid formulations were centrifuged at 16,000×g for 1 h, followed by withdrawal of 100 μL for quantification. Another 100 μL was withdrawn for DLS analysis to confirm that the colloids had completely settled out of solution. Non-centrifuged colloid suspensions were used as controls.
Drug concentration in samples from drug release and membrane permeability assays was quantified by high pressure liquid chromatography coupled with tandem mass spectrometry (HPLC-MS-MS). Protein was precipitated from samples in serum containing media by spiking with 10 μL of formic acid and adding acetonitrile to a final volume of 1 mL. The precipitated samples were then centrifuged at 16,000×g for 5 min to pellet the proteins. The drug-containing supernatant was then diluted in methanol such that the final drug concentration was less than 100 ng mL^−1. During the final dilution, internal standards (nilotinib for lapatinib and norethindrone for fulvestrant) were added to a final concentration of 25 ng/mL each. Standard curves were prepared in a similar way, by diluting 100 mM solutions of drug in DMSO with methanol to final concentrations of 100, 75, 50, 25, 10, 5, 2.5, and 1 ng mL^−1, each with 25 ng mL^−1 of internal standard.

[3] = Membrane permeability assay; format: in vitro ADME; conditions: co-colloids 50 μM lapatinib, 150 μM fulvestrant, 0.04 mg/mL PLAC-PEG, 10% FBS, 6 h, 37° C., acidified vs not
Experimental: Supported artificial lipid membranes were prepared according to the manufacturer instructions (EMD Millipore cat #MATRNPS50). Briefly, a 1% (w/w) solution of egg lecithin in dodecane was prepared by sonicating until the solution was no longer cloudy. A 5 μL aliquot of this phospholipid solution was dropped by pipette into each well of the mesh plate, which wet the membrane and caused it to become translucent. Receiver solution was prepared as 1% (v/v) DMSO and 10% (v/v) FBS in PBS and 340 μL was pipetted into each well of the receiver plate. Lapatinib and fulvestrant solutions ranging from 0 to 5 μM for constructing the standard curve were prepared in identical media and pipetted into separate wells of the receiver plate. Colloids were prepared in PBS containing 10% (v/v) FBS as described above, and 150 μL was pipetted into the mesh plate wells corresponding to the receiver solution in the receiver plate. The mesh plate and receiver plate were gently mated, resulting in the receiver solution wetting the bottom of the phospholipid membrane. […] Finally, the stack was carefully disassembled and a 200 μL sample of receiver and standard curve solutions was withdrawn for drug quantification as described below. […]
Drug concentration in samples from drug release and membrane permeability assays was quantified by high pressure liquid chromatography coupled with tandem mass spectrometry (HPLC-MS-MS). […]

[4] = Zeta potential; format: physicochemical; conditions: 0.1 mM KCl
Experimental: Colloids were prepared as described above, but with a single addition of 0.1 mM KCl solution instead of water and buffer. Zeta potential was immediately assessed using a Malvern Nano-ZS (Malvern Panalytical).

[5] = Acid responsiveness of colloids prepared at different pH (spun down, absorbance); format: physicochemical; conditions: with or without Herceptin as stabilizing agent
Experimental: The colloids were prepared in different pH conditions, spun down, extracted from the supernatant by organic solvent, dried, reconstituted in DMSO and measured for absorbance.

Compound	critical aggregation concentration (CAC) as a function of pH [1]	amount of drug released from co-colloids as a function of pH [2]	drug release over time after acidification to pH 5.5 [2]	ionization state of released lapatinib ([2]; calculated by acid-base theory from release data, low pH)	transmembrane diffusion [3]	CAC over a range of pH values [1]	zeta potential (surface charge) [4]	acid responsiveness of colloidal drug aggregate [5]
CS(=O)(=O)CCNCc1ccc(-c2ccc3ncnc(Nc4ccc(OCc5cccc(F)c5)c(Cl)c4)c3c2)o1 [lapatinib]	pH-dependent CACs	increased with increasing acidity	rapidly reached an equilibrium that was sustained for 24 h	Most lapatinib that is released at low pH is ionized	reduced when the colloids were acidified	–	–	–
C[C@]12CC[C@@H]3c4ccc(O)cc4C[C@@H](CCCCCCCCC[S+]([O-])CCCC(F)(F)C(F)(F)F)[C@H]3[C@@H]1CC[C@@H]2O (stereo partly drawn) [fulvestrant]	did not dissolve on acidification	unaffected by pH	remained unresponsive to acid	–	–	No change in CAC values	negative zeta potential	–
Clc1ccccc1C(c1ccccc1)(c1ccccc1)n1ccnc1 [clotrimazole]	pH-dependent CACs	–	–	–	–	–	–	–
Fc1ccc(-n2cc(CCCCN3CCC4(CC3)OCc3ccccc34)c3ccccc32)cc1 [siramesine]	–	–	–	–	–	increase in CAC values	–	–
CNC(=O)c1cc(Oc2ccc(NC(=O)Nc3ccc(Cl)c(C(F)(F)F)c3)cc2)ccn1 [sorafenib]	did not dissolve on acidification	–	–	–	–	not pH-dependent	–	did not demonstrate acid responsiveness
